According to patent US6624174B2, “2-amino-nicotinamide derivatives and their use as VEGF-receptor tyrosine kinase inhibitors” (Novartis AG, priority 2000, dated 2003):

Compound	melting point [°C]
COc1ccc(CNc2ncccc2C(=O)Nc2cccc(C(F)(F)F)c2)cn1.Cl.Cl	185
O=C(Nc1ccc(C(F)(F)F)c(C(F)(F)F)c1)c1cccnc1NCc1ccncc1 [Example 6, 2-[(4-Pyridyl)methylamino]-N-[3,4-bis(trifluoromethyl)phenyl]-3-pyridinecarboxamide]	194 to 196
O=C(Nc1cc(F)cc(C(F)(F)F)c1)c1cccnc1NCc1ccncc1 [Example 7, 2-[(4-Pyridyl)methylamino]-N-[3-fluoro-5-(trifluoromethyl)phenyl]-3-pyridinecarboxamide]	196
CC(C)(C)[C@H]1CC[C@H](NC(=O)c2cccnc2NCc2ccncc2)CC1 [Example 8, 2-[(4-Pyridyl)methylamino]-N-(trans-4-tert-butyl-cyclohexyl)-3-pyridinecarboxamide]	165 to 167
CCCc1ccc(NC(=O)c2cccnc2NCc2ccncc2)cc1 [Example 9, 2-[(4-Pyridyl)methylamino]-N-[4-(n-propyl)phenyl]-3-pyridinecarboxamide]	147 to 149
CCCCc1ccc(NC(=O)c2cccnc2NCc2ccncc2)cc1 [Example 10, 2-[(4-Pyridyl)methylamino]-N-[4-(n-butyl)phenyl)3-pyridinecarboxamide]	107 to 108
CCCCCc1ccc(NC(=O)c2cccnc2NCc2ccncc2)cc1 [Example 11, 2-[(4-Pyridyl)methylamino]-N-[4-(n-pentyl)phenyl]-3-pyridinecarboxamide]	106 to 107
CC#Cc1ccc(NC(=O)c2cccnc2NCc2ccncc2)cc1 [Example 12, 2-[(4-Pyridyl)methylamino]-N-[4-(1-propynyl)phenyl]-3-pyridinecarboxamide]	216 to 221
O=C(Nc1ccc2[nH]ncc2c1)c1cccnc1NCc1ccncc1 [Example 13, 2-[(4-Pyridyl)methylamino]-N-(5-indazolyl)-3-pyridinecarboxamide]	225 to 230
O=C(Nc1cc2ccccc2cn1)c1cccnc1NCc1ccncc1 [Example 14, 2-[(4-Pyridyl)methylamino]-N-(3-isoquinolinyl)-3-pyridinecarboxamide]	191 to 195

More lines, now with the values ahead:

melting point [°C]	Compound
137 to 140	O=C(Nc1cccc(C(F)(F)F)c1F)c1cccnc1NCc1ccncc1 [Example 19, 2-[(4-Pyridyl)methylamino]-N-[2-fluoro-3-(trifluoromethyl)phenyl]-3-pyridinecarboxamide]
164 to 165	O=C(Nc1ccc(Br)c(C(F)(F)F)c1)c1cccnc1NCc1ccncc1 [Example 20, 2-[(4-Pyridyl)methylamino]-N-[4-bromo-3-(trifluoromethyl)phenyl]-3-pyridinecarboxamide]
146 to 147	Cc1c(NC(=O)c2cccnc2NCc2ccncc2)cccc1C(F)(F)F [Example 21, 2-[(4-Pyridyl)methylamino]-N-[2-methyl-3-(trifluoromethyl)phenyl]-3-pyridinecarboxamide]
155 to 156	Cc1ccc(C(F)(F)F)cc1NC(=O)c1cccnc1NCc1ccncc1 [Example 22, 2-[(4-Pyridyl)methylamino]-N-[2-methyl-5-(trifluoromethyl)phenyl]-3-pyridinecarboxamide]
103 to 106	CC(C)(C)[C@H]1CC[C@@H](NC(=O)c2cccnc2NCc2ccncc2)CC1 [Example 23, 2-[(4-Pyridyl)methylamino]-N-(cis-4-tert-butyl-cyclohexyl)-3-pyridinecarboxamide]
123 to 125	COc1ccc(CNc2ncccc2C(=O)Nc2ccc(Br)c(C(F)(F)F)c2)cn1 [Example 24, 2-[(6-Methoxypyrid-3-yl)methylamino]-N-[4-bromo-3-(trifluoromethyl)phenyl]-3-pyridinecarboxamide]
213 to 217	CC#Cc1ccc(NC(=O)c2cccnc2NCc2ccncc2)cc1C(F)(F)F [Example 31, 2-[(4-Pyridyl)methylamino]-N-[4-propynyl-3-(trifluoromethyl)phenyl]3-pyridinecarboxamide]
211 to 218	CC#Cc1ccc(NC(=O)c2cccnc2NCc2ccc(=O)[nH]c2)cc1C(F)(F)F [Example 32, 2-[(Pyridin-2(1H)-on-5-yl)methyl]amino-N-[4-propynyl-3-(trifluoromethyl)phenyl]-3-pyridinecarboxamide]
143 to 146	O=C(Nc1cccc(C(F)(F)F)c1)c1cccnc1NCc1cccc(O)c1 [Example 34, 2-[(3-Hydroxyphenyl)methyl]amino-N-[3-(trifluoromethyl)phenyl]-3-pyridinecarboxamide]
219 to 222	O=C(Nc1cccc(C(F)(F)F)c1F)c1cccnc1NCc1ccc(=O)[nH]c1 [Example 36, 2-[(Pyridin-2(1H)-on-5-yl)methyl]amino-N-[2-fluoro-3-(trifluoromethyl)phenyl]-3-pyridinecarboxamide]
220 to 224	CCCc1ccc(NC(=O)c2cccnc2NCc2ccc(=O)[nH]c2)cc1C(F)(F)F [Example 38, 2-[(Pyridin-2(1H)-on-5-yl)methyl]amino-N-[4-propyl-3-(trifluoromethyl)phenyl]-3-pyridinecarboxamide]
147 to 149	CCCc1ccc(NC(=O)c2cccnc2NCc2ccncc2)cc1C(F)(F)F [Example 40, 2-[(4-Pyridyl)methyl]amino-N-[4-(n-propyl)-3-(trifluoromethyl)phenyl]-3-pyridinecarboxamide]
